Like-named read-outs stand apart in the source and are kept apart here.
Biological target: T1, GCS (Canis lupus familiaris, UniProt A0A8I3MXG6)
T1 sequence (A0A8I3MXG6 1-394): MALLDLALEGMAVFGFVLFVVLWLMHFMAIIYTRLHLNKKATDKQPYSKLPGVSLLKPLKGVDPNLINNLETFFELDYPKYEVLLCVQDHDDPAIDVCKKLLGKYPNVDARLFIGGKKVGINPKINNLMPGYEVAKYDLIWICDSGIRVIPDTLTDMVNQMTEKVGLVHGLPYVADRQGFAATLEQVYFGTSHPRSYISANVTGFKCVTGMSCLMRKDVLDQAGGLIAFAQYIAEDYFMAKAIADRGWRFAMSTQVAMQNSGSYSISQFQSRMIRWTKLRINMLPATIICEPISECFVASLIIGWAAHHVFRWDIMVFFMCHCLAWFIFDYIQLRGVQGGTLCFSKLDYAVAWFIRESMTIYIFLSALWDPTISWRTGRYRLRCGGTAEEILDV
Test: Assay 1: GCS Enzymatic Assay (MDCK cell lysate, C6-NBD-Ceramide, LC/MS)
Assay type: biochemical, canine
Settings: for IC50: read-out: IC50 (nM) generated from Assay 1
How it was run: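 LC/MS/MS measurement of glucosylceramide and NBD-ceramide after a 1 h, 37 °C reaction with 100 μM UDP-glucose and 10 μM C6-NBD-ceramide gave IC50s or percent inhibition.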

Compound | IC50 (Table 2, data without asterisk) [nM] | other results
O=C(N[C@H](CN1CCCC1)[C@@H](O)c1cc2cc(Cl)ccc2o1)C(F)(F)c1cc2cc(Cl)ccc2o1 [Compound 68G, 2-(5-chlorobenzofuran-2-yl)-N-((1R,2R)-1-(5-chlorobenzofuran-2-yl)-1-hydroxy-3-(pyrrolidin-1-yl)propan-2-yl)-2,2-difluoroacetamide] | – | % inhibition generated from Assay 1 (Table 1, values marked *, MDCK cell lysate): B* (the compound had a % inhibition of greater than or equal to about 3% but less than about 50%)
O=C(N[C@H](CN1CCCC1)[C@H](O)c1ccc(OC2CC2)c(Cl)c1)C(F)(F)c1cc2cc(C(F)(F)F)ccc2o1 [Compound 69, N-((1R,2R)-1-(3-chloro-4-cyclopropoxyphenyl)-1-hydroxy-3-(pyrrolidin-1-yl)propan-2-yl)-2,2-difluoro-2-(5-(trifluoromethyl)benzofuran-2-yl)acetamide] | – | IC50 (Table 1, MDCK cell lysate): < 50 nM
O=C(N[C@H](CN1CCCC1)[C@@H](O)c1ccc(OC2CC2)c(Cl)c1)C(F)(F)c1cc2cc(C(F)(F)F)ccc2o1 [Compound 69A, N-((1S,2R)-1-(3-chloro-4-cyclopropoxyphenyl)-1-hydroxy-3-(pyrrolidin-1-yl)propan-2-yl)-2,2-difluoro-2-(5-(trifluoromethyl)benzofuran-2-yl)acetamide] | – | IC50 (Table 1, MDCK cell lysate): 50 to 5000 nM
O=C(N[C@H](CN1CCCC1)[C@H](O)c1ccc2c(c1)OCCO2)C(=O)C1Cc2ccccc2C1 [Compound 70, 2-(2,3-dihydro-1H-inden-2-yl)-N-((1R,2R)-1-(2,3-dihydrobenzo[b][1,4]dioxin-6-yl)-1-hydroxy-3-(pyrrolidin-1-yl)propan-2-yl)-2-oxoacetamide] | – | IC50 (Table 1, MDCK cell lysate): < 50 nM
O=C(N[C@H](CN1CCCC1)[C@H](O)c1ccc2c(c1)OCCO2)C(=O)c1cc2cc(Cl)ccc2o1 [Compound 71, 2-(5-chlorobenzofuran-2-yl)-N-((1R,2R)-1-(2,3-dihydrobenzo[b][1,4]dioxin-6-yl)-1-hydroxy-3-(pyrrolidin-1-yl)propan-2-yl)-2-oxoacetamide] | – | IC50 (Table 1, MDCK cell lysate): < 50 nM
O=C(N[C@H](CN1CCCC1)[C@H](O)c1ccc2c(c1)OCCO2)/C(=N/O)c1cc2cc(Cl)ccc2o1 [Compound 72, (E)-2-(5-chlorobenzofuran-2-yl)-N-((1R,2R)-1-(2,3-dihydrobenzo[b][1,4]dioxin-6-yl)-1-hydroxy-3-(pyrrolidin-1-yl)propan-2-yl)-2-(hydroxyimino)acetamide] | – | IC50 (Table 1, MDCK cell lysate): < 50 nM
O=C(N[C@H](CN1CCCC1)[C@H](O)c1ccc2c(c1)OCCO2)C(=O)C1Cc2ccc(-c3ccccn3)cc2C1 (stereo partly drawn) [Compound 73, N-((1R,2R)-1-(2,3-dihydrobenzo[b][1,4]dioxin-6-yl)-1-hydroxy-3-(pyrrolidin-1-yl)propan-2-yl)-2-oxo-2-(5-(pyridin-2-yl)-2,3-dihydro-1H-inden-2-yl)acetamide] | – | IC50 (Table 1, MDCK cell lysate): < 50 nM
O=C(N[C@H](CN1CCCC1)[C@H](O)c1ccc2c(c1)OCCO2)C(=O)C1Cc2ccc(Cl)cc2C1 (stereo partly drawn) [Compound 74, 2-(5-chloro-2,3-dihydro-1H-inden-2-yl)-N-((1R,2R)-1-(2,3-dihydrobenzo[b][1,4]dioxin-6-yl)-1-hydroxy-3-(pyrrolidin-1-yl)propan-2-yl)-2-oxoacetamide] | – | IC50 (Table 1, MDCK cell lysate): < 50 nM
O=C(N[C@H](CN1CCCC1)[C@H](O)c1ccc2c(c1)OCCO2)C(=O)c1[nH]cc2c1CCCC2 [Compound 77, N-((1R,2R)-1-(2,3-dihydrobenzo[b][1,4]dioxin-6-yl)-1-hydroxy-3-(pyrrolidin-1-yl)propan-2-yl)-2-oxo-2-(4,5,6,7-tetrahydro-2H-isoindol-1-yl)acetamide] | – | % inhibition generated from Assay 1 (Table 2, data marked by *): B* (the compound had a % inhibition of greater than or equal to about 3% but less than about 50%)
O=C(N[C@H](CN1CCCC1)[C@H](O)c1ccc2c(c1)OCCO2)C(F)(F)CCc1ccc2cc(F)ccc2c1 [Compound 84, N-((1R,2R)-1-(2,3-dihydrobenzo[b][1,4]dioxin-6-yl)-1-hydroxy-3-(pyrrolidin-1-yl)propan-2-yl)-2,2-difluoro-4-(6-fluoronaphthalen-2-yl)butanamide] | < 50 | –
O=C(N[C@H](CN1CCC1)[C@H](O)c1cc(F)c2c(c1)OCCO2)C(F)(F)CCc1ccc2cc(F)ccc2c1 [Compound 86, N-((1R,2R)-3-(azetidin-1-yl)-1-(8-fluoro-2,3-dihydrobenzo[b][1,4]dioxin-6-yl)-1-hydroxypropan-2-yl)-2,2-difluoro-4-(6-fluoronaphthalen-2-yl)butanamide] | < 50 | –
O=C(N[C@H](CN1CCCC1)[C@H](O)c1ccc(OCC(F)(F)F)nc1)C(F)(F)CCc1ccc2cc(F)ccc2c1 [Compound 88, 2,2-difluoro-4-(6-fluoronaphthalen-2-yl)-N-((1R,2R)-1-hydroxy-3-(pyrrolidin-1-yl)-1-(6-(2,2,2-trifluoroethoxy)pyridin-3-yl)propan-2-yl)butanamide] | – | % inhibition generated from Assay 1 (Table 2, data marked by *): A* (the compound had a % inhibition of a percent inhibition of greater than or equal to about 50%)
O=C(CCc1ccc2cc(F)ccc2c1)C(=O)N[C@H](CN1CCCC1)[C@H](O)c1ccc2c(c1)OCCO2 [Compound 90, N-((1R,2R)-1-(2,3-dihydrobenzo[b][1,4]dioxin-6-yl)-1-hydroxy-3-(pyrrolidin-1-yl)propan-2-yl)-4-(6-fluoronaphthalen-2-yl)-2-oxobutanamide] | < 50 | –
O=C(N[C@H](CN1CCCC1)[C@H](O)c1ccc(OCC(F)(F)F)nc1)C(F)(F)C1Cc2ccc(Cl)cc2C1 (stereo partly drawn) [Compound 91, 2-(5-chloro-2,3-dihydro-1H-inden-2-yl)-2,2-difluoro-N-((1R,2R)-1-hydroxy-3-(pyrrolidin-1-yl)-1-(6-(2,2,2-trifluoroethoxy)pyridin-3-yl)propan-2-yl)acetamide] | – | % inhibition generated from Assay 1 (Table 2, data marked by *): B* (the compound had a % inhibition of greater than or equal to about 3% but less than about 50%)
O=C(N[C@H](CN1CCC1)[C@H](O)c1cc(F)c2c(c1)OCCO2)C(F)(F)C1Cc2ccc(Cl)cc2C1 (stereo partly drawn) [Compound 92, N-((1R,2R)-3-(azetidin-1-yl)-1-(8-fluoro-2,3-dihydrobenzo[b][1,4]dioxin-6-yl)-1-hydroxypropan-2-yl)-2-(5-chloro-2,3-dihydro-1H-inden-2-yl)-2,2-difluoroacetamide] | < 50 | –
CC(C)Oc1ccc([C@@H](O)[C@@H](CN2CCCC2)NC(=O)C(F)(F)c2cc3cc(Cl)ccc3o2)cc1Cl [Compound 94, N-((1R,2R)-1-(3-chloro-4-isopropoxyphenyl)-1-hydroxy-3-(pyrrolidin-1-yl)propan-2-yl)-2-(5-chlorobenzofuran-2-yl)-2,2-difluoroacetamide] | < 50 | –

Continued, in another order:

IC50 (Table 2, data without asterisk) [nM] | Compound | other results
< 50 | O=C(N[C@H](CN1CCC1)[C@H](O)c1ccc2c(c1)OCCO2)C(=O)c1cc2cc(Cl)ccc2o1 [Compound 78, N-((1R,2R)-3-(azetidin-1-yl)-1-(2,3-dihydrobenzo[b][1,4]dioxin-6-yl)-1-hydroxypropan-2-yl)-2-(5-chlorobenzofuran-2-yl)-2-oxoacetamide] | –
< 50 | O=C(N[C@H](CN1CCCC1)[C@H](O)c1ccc(OC2CC2)c(Cl)c1)C(=O)c1cc2cc(Cl)ccc2o1 [Compound 79, N-((1R,2R)-1-(3-chloro-4-cyclopropoxyphenyl)-1-hydroxy-3-(pyrrolidin-1-yl)propan-2-yl)-2-(5-chlorobenzofuran-2-yl)-2-oxoacetamide] | –
< 50 | O=C(N[C@H](CN1CCCC1)[C@H](O)c1ccc(OC2CC2)c(Cl)c1)C(F)(F)CCc1ccc2cc(F)ccc2c1 [Compound 82, N-((1R,2R)-1-(3-chloro-4-cyclopropoxyphenyl)-1-hydroxy-3-(pyrrolidin-1-yl)propan-2-yl)-2,2-difluoro-4-(6-fluoronaphthalen-2-yl)butanamide] | –
< 50 | O=C(N[C@H](CN1CCC1)[C@H](O)c1cc(F)c2c(c1)OCCO2)C(F)(F)c1cc2cc(Cl)ccc2o1 [Compound 83, N-((1R,2R)-3-(azetidin-1-yl)-1-(8-fluoro-2,3-dihydrobenzo[b][1,4]dioxin-6-yl)-1-hydroxypropan-2-yl)-2-(5-chlorobenzofuran-2-yl)-2,2-difluoroacetamide] | –
< 50 | O=C(N[C@H](CN1CCCC1)[C@H](O)c1ccc(OCC(F)(F)F)nc1)C(F)(F)c1cc2cc(Cl)ccc2o1 [Compound 85, 2-(5-chlorobenzofuran-2-yl)-2,2-difluoro-N-((1R,2R)-1-hydroxy-3-(pyrrolidin-1-yl)-1-(6-(2,2,2-trifluoroethoxy)pyridin-3-yl)propan-2-yl)acetamide] | –
< 50 | O=C(N[C@H](CN1CCCC1)[C@H](O)c1cc(F)c2c(c1)OCCO2)C(F)(F)CCc1ccc2cc(F)ccc2c1 [Compound 87, 2,2-difluoro-N-((1R,2R)-1-(8-fluoro-2,3-dihydrobenzo[b][1,4]dioxin-6-yl)-1-hydroxy-3-(pyrrolidin-1-yl)propan-2-yl)-4-(6-fluoronaphthalen-2-yl)butanamide] | –
< 50 | O=C(N[C@H](CN1CCC1)[C@H](O)c1cc(F)c2c(c1)OCCO2)C(=O)c1cc2cc(Cl)ccc2o1 [Compound 89, N-((1R,2R)-3-(azetidin-1-yl)-1-(8-fluoro-2,3-dihydrobenzo[b][1,4]dioxin-6-yl)-1-hydroxypropan-2-yl)-2-(5-chlorobenzofuran-2-yl)-2-oxoacetamide] | –
< 50 | O=C(N[C@H](CN1CCCC1)[C@H](O)c1cc(F)c2c(c1)OCCO2)C(F)(F)C1Cc2ccc(Cl)cc2C1 (stereo partly drawn) [Compound 93, 2-(5-chloro-2,3-dihydro-1H-inden-2-yl)-2,2-difluoro-N-((1R,2R)-1-(8-fluoro-2,3-dihydrobenzo[b][1,4]dioxin-6-yl)-1-hydroxy-3-(pyrrolidin-1-yl)propan-2-yl)acetamide] | –

From patent US10227323B2, “Glucosylceramide synthase inhibitors for the treatment of diseases” (BIOMARIN PHARMACEUTICAL INC., priority 2013, dated 2019)
